According to ChEMBL document CHEMBL4417631, “Oral peptide inhibitors of interleukin-23 receptor and their use to treat inflammatory bowel diseases” (2017):
*1 amine or outer side, *2 acyl side, *3 side chain or, on linkers, in order; H or OH if unused. Where a SMILES comes first, the peptide text is derived from it. Bridges are numbered along the chain shown (N, C = ends). [ ]: non-standard residue; d: D form. Abu(4-yl) = O=C([C@H](CC[*:3])N[*:1])[*:2]; 2Nal = N[C@@H](Cc1ccc2ccccc2c1)C(=O)O; AEF = NCCOc1ccc(C[C@H](N)C(=O)O)cc1; αMeK = C[C@](N)(CCCCN)C(=O)O

Tests used:
[1] = Inhibition of interleukin-23 binding to rat interleukin-23 receptor incubated for 2 hrs by competitive binding ELISA
Interleukin-23 receptor [2] = molecular target: T1, Interleukin-23 receptor (Homo sapiens, UniProt Q5VWK5); assay: Inhibition of interleukin-23 binding to human interleukin-23 receptor incubated for 2 hrs by competitive binding ELISA
T1 sequence (Q5VWK5 whole entry): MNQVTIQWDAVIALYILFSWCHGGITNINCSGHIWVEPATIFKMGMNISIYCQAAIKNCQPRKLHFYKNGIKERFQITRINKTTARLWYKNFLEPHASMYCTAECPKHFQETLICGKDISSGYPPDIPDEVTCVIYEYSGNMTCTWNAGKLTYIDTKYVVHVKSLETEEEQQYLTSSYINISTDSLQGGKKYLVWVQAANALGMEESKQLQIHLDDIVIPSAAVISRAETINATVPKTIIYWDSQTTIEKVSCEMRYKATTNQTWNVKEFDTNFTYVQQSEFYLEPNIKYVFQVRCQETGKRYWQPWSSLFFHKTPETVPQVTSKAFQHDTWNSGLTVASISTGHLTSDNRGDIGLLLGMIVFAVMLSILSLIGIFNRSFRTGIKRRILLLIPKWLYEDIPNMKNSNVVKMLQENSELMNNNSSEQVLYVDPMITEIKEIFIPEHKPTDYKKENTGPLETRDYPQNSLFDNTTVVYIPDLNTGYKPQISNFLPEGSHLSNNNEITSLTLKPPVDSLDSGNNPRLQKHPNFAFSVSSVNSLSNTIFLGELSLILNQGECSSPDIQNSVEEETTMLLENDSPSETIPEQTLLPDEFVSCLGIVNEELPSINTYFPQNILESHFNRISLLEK

Interleukin-23 receptor [3] = molecular target: T1, Interleukin-23 receptor; assay: Inhibition of interleukin-23 receptor in human DB cells assessed as reduction in IL-23-stimulated STAT3 phosphorylation incubated for 30 mins by HTRF assay; assay type: cell-based
[4] = Half life in simulated intestinal fluid at 20 uM by LC-MS/MS analysis; assay type: ADME
[5] = Half life in simulated gastric fluid at 20 uM by LC-MS/MS analysis; assay type: ADME

Row | SMILES | IC50 [1] [nM] | IC50 (Interleukin-23 receptor [2]) [nM] | IC50 (Interleukin-23 receptor [3]) [nM] | half-life at 20 µM [4] [h] | half-life at 20 µM [5] [h]
1 | COc1ccc(C[C@H](NC(=O)[C@@H]2CSCC[C@H](NC(C)=O)C(=O)N[C@@H](CCC(N)=O)C(=O)N[C@@H]([C@@H](C)O)C(=O)N[C@@H](Cc3c[nH]c4ccccc34)C(=O)N[C@@H](CCC(N)=O)C(=O)N2)C(=O)N[C@@H](Cc2c[nH]c3ccccc23)C(=O)N[C@@](C)(CCCCN)C(=O)N[C@@H](CCCCNC(C)=O)C(=O)N[C@@H](CC(N)=O)C(=O)NCC(N)=O)cc1 | 10 to 25 | 10 to 25 | 10 to 25 | > 6 | < 1
2 | CC(=O)N[C@H]1CCSC[C@@H](C(=O)N[C@@H](Cc2ccc3ccccc3c2)C(=O)N[C@@H](Cc2ccc3ccccc3c2)C(=O)N[C@@](C)(CCCCN)C(=O)N[C@@H](CCC(=O)O)C(=O)N[C@@H](CC(N)=O)C(=O)NCC(N)=O)NC(=O)[C@H](CCC(N)=O)NC(=O)[C@H](Cc2c[nH]c3ccccc23)NC(=O)[C@H]([C@@H](C)O)NC(=O)[C@H](CCC(N)=O)NC1=O (Ac-[Abu(4-yl)]QTWQC[2Nal][2Nal][αMeK]ENG-NH2; thioether 1-6) | 25 to 100 | 10 to 25 |  | 3 to 6 | < 1
3 | CC(=O)N[C@H]1CCSC[C@@H](C(=O)N[C@@H](Cc2ccc(OCCN)cc2)C(=O)N[C@@H](Cc2ccc3ccccc3c2)C(=O)NC2(C(=O)N[C@@H](CCC(=O)O)C(=O)N[C@@H](CC(N)=O)C(=O)N[C@@H](CC(N)=O)C(N)=O)CCCC2)NC(=O)[C@H](CCC(N)=O)NC(=O)[C@H](Cc2c[nH]c3ccccc23)NC(=O)[C@H]([C@@H](C)O)NC(=O)[C@H](CCC(N)=O)NC1=O | < 10 |  | < 10 | 2 to 3 | > 6
4 | CC(=O)N[C@H]1CCSC[C@@H](C(=O)N[C@@H](Cc2ccc(OCCN)cc2)C(=O)N[C@@H](Cc2ccc3ccccc3c2)C(=O)NC2(C(=O)N[C@@H](CCC(=O)O)C(=O)N[C@@H](CC(N)=O)C(=O)N[C@@H](CC(N)=O)C(N)=O)CCNCC2)NC(=O)[C@H](CCC(N)=O)NC(=O)[C@H](Cc2c[nH]c3ccccc23)NC(=O)[C@H]([C@@H](C)O)NC(=O)[C@H](CCC(N)=O)NC1=O | < 10 |  | < 10 | > 6 | > 6
5 | CC(=O)NCCCC[C@H](NC(=O)[C@](C)(CC(C)C)NC(=O)[C@H](Cc1ccc2ccccc2c1)NC(=O)[C@H](Cc1ccc(OCCNC(C)=O)cc1)NC(=O)[C@@H](NC(=O)[C@H](CCC(N)=O)NC(=O)[C@H](Cc1c[nH]c2ccccc12)NC(=O)[C@@H](NC(=O)[C@H](CCC(N)=O)NC(=O)[C@@H](NC(C)=O)C(C)(C)S)[C@@H](C)O)C(C)(C)S)C(=O)N[C@@H](CC(N)=O)C(=O)N[C@@H](CC(N)=O)C(N)=O |  | < 10 | < 10 | > 6 | > 6
6 | CC(=O)N[C@H]1CCSC[C@@H](C(=O)N[C@@H](Cc2ccc(OCCN)cc2)C(=O)N[C@@H](Cc2ccc3ccccc3c2)C(=O)N[C@@](C)(CCCCN)C(=O)N[C@@H](CCC(=O)O)C(=O)N[C@@H](CC(N)=O)C(=O)NCC(N)=O)NC(=O)[C@H](CCC(N)=O)NC(=O)[C@H](Cc2c[nH]c3ccccc23)NC(=O)[C@H]([C@@H](C)O)NC(=O)[C@H]([C@@H](C)O)NC1=O |  | < 10 | < 10 | 3 to 6 | 3 to 6
7 | CC(=O)NCCOc1ccc(C[C@H](NC(=O)[C@@H](NC(=O)[C@H](CCC(N)=O)NC(=O)[C@H](Cc2c[nH]c3ccccc23)NC(=O)[C@@H](NC(=O)[C@H](CCC(N)=O)NC(=O)[C@@H](NC(C)=O)C(C)(C)S)[C@@H](C)O)C(C)(C)S)C(=O)N[C@@H](Cc2ccc3ccccc3c2)C(=O)N[C@@](C)(CC(C)C)C(=O)N[C@@H](CCC(N)=O)C(=O)N[C@@H](CC(N)=O)C(=O)N[C@@H](CC(N)=O)C(N)=O)cc1 |  | < 10 | < 10 | > 6 | > 6
8 | CC(=O)NCCCC[C@H](NC(=O)[C@](C)(CCCCN)NC(=O)[C@H](Cc1c[nH]c2ccccc12)NC(=O)[C@H](Cc1ccc(O)cc1)NC(=O)[C@@H](NC(=O)[C@H](CCC(N)=O)NC(=O)[C@H](Cc1c[nH]c2ccccc12)NC(=O)[C@@H](NC(=O)[C@H](CCC(N)=O)NC(=O)[C@@H](NC(C)=O)C(C)(C)S)[C@@H](C)O)C(C)(C)S)C(=O)N[C@@H](CC(N)=O)C(=O)NCC(N)=O |  | 100 to 1000 | 25 to 100 | > 6 | > 6
9 | CC(=O)N[C@H]1CCSC[C@@H](C(=O)N[C@@H](Cc2ccc(OCCN)cc2)C(=O)N[C@@H](Cc2ccc3ccccc3c2)C(=O)N[C@@](C)(CCCCN)C(=O)N[C@@H](CCCCNC(=O)c2ccccc2)C(=O)N[C@@H](CC(N)=O)C(=O)NCC(N)=O)NC(=O)[C@H](CCC(N)=O)NC(=O)[C@H](Cc2c[nH]c3ccccc23)NC(=O)[C@H]([C@@H](C)O)NC(=O)[C@H](CCC(N)=O)NC1=O |  | < 10 | < 10 | 3 to 6 | > 6

Now from value to compound:

Row | IC50 [1] [nM] | IC50 (Interleukin-23 receptor [2]) [nM] | IC50 (Interleukin-23 receptor [3]) [nM] | half-life at 20 µM [4] [h] | half-life at 20 µM [5] [h] | SMILES
10 | < 10 | < 10 | < 10 | > 6 | 1 to 2 | CC(=O)N[C@H](CCC(=O)O)C(=O)N[C@H]1CCSC[C@@H](C(=O)N[C@@H](Cc2ccc(OCCN)cc2)C(=O)N[C@@H](Cc2ccc3ccccc3c2)C(=O)N[C@@](C)(CCCCN)C(=O)N[C@@H](CCC(=O)O)C(=O)N[C@@H](CC(N)=O)C(=O)N[C@@H](CC(N)=O)C(N)=O)NC(=O)[C@H](CCC(N)=O)NC(=O)[C@H](Cc2c[nH]c3ccccc23)NC(=O)[C@H]([C@@H](C)O)NC(=O)[C@H](CCC(N)=O)NC1=O
11 | 10 to 25 | < 10 | < 10 | 1 to 2 | < 1 | COc1ccc(C[C@H](NC(=O)[C@@H]2CSCC[C@H](NC(=O)[C@@H](CCCCN)NC(C)=O)C(=O)N[C@@H](CCC(N)=O)C(=O)N[C@@H]([C@@H](C)O)C(=O)N[C@@H](Cc3c[nH]c4ccccc34)C(=O)N[C@@H](CCC(N)=O)C(=O)N2)C(=O)N[C@@H](Cc2ccc3ccccc3c2)C(=O)N[C@@](C)(CC(C)C)C(=O)N[C@@H](CCC(=O)O)C(=O)N[C@@H](CC(N)=O)C(=O)NCC(N)=O)cc1
12 | < 10 | < 10 | < 10 | > 6 | 2 to 3 | CC(=O)N[C@@H](CC(C)C)C(=O)N[C@H]1CCSC[C@@H](C(=O)N[C@@H](Cc2ccc(OCCN)cc2)C(=O)N[C@@H](Cc2ccc3ccccc3c2)C(=O)N[C@@](C)(CCCCN)C(=O)N[C@@H](CCC(=O)O)C(=O)N[C@@H](CC(N)=O)C(=O)N[C@@H](CC(N)=O)C(N)=O)NC(=O)[C@H](CCC(N)=O)NC(=O)[C@H](Cc2c[nH]c3ccccc23)NC(=O)[C@H]([C@@H](C)O)NC(=O)[C@H](CCC(N)=O)NC1=O (Ac-L[Abu(4-yl)]QTWQC[AEF][2Nal][αMeK]ENN-NH2; thioether 2-7)
13 | 10 to 25 | 10 to 25 | < 10 | 2 to 3 | < 1 | COc1ccc(C[C@H](NC(=O)[C@@H]2CSCC[C@H](NC(C)=O)C(=O)N[C@@H](CCC(N)=O)C(=O)N[C@@H]([C@@H](C)O)C(=O)N[C@@H](Cc3c[nH]c4ccccc34)C(=O)N[C@@H](CCC(N)=O)C(=O)N2)C(=O)N[C@@H](Cc2ccc3ccccc3c2)C(=O)N[C@@](C)(CCCN)C(=O)N[C@@H](CCCCNC(C)=O)C(=O)N[C@@H](CC(N)=O)C(=O)NCC(N)=O)cc1
14 | < 10 | < 10 | < 10 | > 6 | 3 to 6 | CC(=O)NCCCC[C@H](NC(=O)[C@](C)(CCCCN)NC(=O)[C@H](Cc1ccc2ccccc2c1)NC(=O)[C@H](Cc1ccc(OCCN)cc1)NC(=O)[C@@H]1CSCC[C@H](NC(=O)CCC(=O)O)C(=O)N[C@@H](CCC(N)=O)C(=O)N[C@@H]([C@@H](C)O)C(=O)N[C@@H](Cc2c[nH]c3ccccc23)C(=O)N[C@@H](CCC(N)=O)C(=O)N1)C(=O)N[C@@H](CC(N)=O)C(=O)NCC(N)=O
15 | 25 to 100 | 25 to 100 | < 10 | > 6 | 3 to 6 | COc1ccc(C[C@H](NC(=O)[C@@H](NC(=O)[C@H](CCC(N)=O)NC(=O)[C@H](Cc2c[nH]c3ccccc23)NC(=O)[C@@H](NC(=O)[C@H](CCC(N)=O)NC(=O)[C@@H](NC(=O)CCC(=O)O)C(C)(C)S)[C@@H](C)O)C(C)(C)S)C(=O)N[C@@H](Cc2ccc3ccccc3c2)C(=O)N[C@@](C)(CCCCN)C(=O)N[C@@H](CCCCNC(C)=O)C(=O)N[C@@H](CC(N)=O)C(=O)NCC(N)=O)cc1
16 | 25 to 100 | 25 to 100 | < 10 | 3 to 6 | < 1 | COc1ccc(C[C@H](NC(=O)[C@@H]2CSCC[C@H](NC(C)=O)C(=O)N[C@@H](CCC(N)=O)C(=O)N[C@@H]([C@@H](C)O)C(=O)N[C@@H](Cc3c[nH]c4ccccc34)C(=O)N[C@@H](CCC(N)=O)C(=O)N2)C(=O)N[C@@H](Cc2c[nH]c3ccccc23)C(=O)N[C@@](C)(CCCN)C(=O)N[C@@H](CCC(=O)O)C(=O)N[C@@H](CC(N)=O)C(=O)NCC(N)=O)cc1
